The values that follow come from PubChem BioAssay AID743119 (The Scripps Research Institute Molecular Screening Center, 2013).

The target in assay [1] is Acyl-protein thioesterase 1 (Homo sapiens) (UniProt O75608). As to the kind of experiment: in situ APT1/APT2 inhibitor potency by ABPP – HeLa cells, in situ treatment, fluorescence gel, late-stage follow-up (AID 743119). Particulars: gel-based ABPP FP-Rh fluorescence, LYPLA1.
For assay [2], the target named is Acyl-protein thioesterase 2 (Homo sapiens) (UniProt O95372). The description is as above. The following applies: gel-based ABPP FP-Rh fluorescence, LYPLA2.
Acyl-protein thioesterase 2 (Homo sapiens), sequence (O95372 whole entry, looked up): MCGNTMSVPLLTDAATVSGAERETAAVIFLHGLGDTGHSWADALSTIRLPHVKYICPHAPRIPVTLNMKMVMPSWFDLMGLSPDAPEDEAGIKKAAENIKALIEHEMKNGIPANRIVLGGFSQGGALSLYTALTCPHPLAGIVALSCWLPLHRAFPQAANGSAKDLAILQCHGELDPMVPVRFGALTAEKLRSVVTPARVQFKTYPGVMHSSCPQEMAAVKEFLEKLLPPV

Acyl-protein thioesterase 1 (Homo sapiens), sequence (O75608 whole entry, looked up): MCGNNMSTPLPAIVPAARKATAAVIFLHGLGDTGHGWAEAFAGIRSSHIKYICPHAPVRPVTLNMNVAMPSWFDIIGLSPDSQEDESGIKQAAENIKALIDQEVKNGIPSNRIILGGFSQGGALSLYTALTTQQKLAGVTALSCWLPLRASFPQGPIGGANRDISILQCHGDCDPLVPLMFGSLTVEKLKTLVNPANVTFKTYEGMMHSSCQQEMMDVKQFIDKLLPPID

Broadly, the IC50 is the point on the concentration scale where inhibition reaches its midpoint. In the case of `O=C(ON1C(=O)C2CN(C(=O)N3CCOCC3)CCN2C1=O)N1CCC(CCc2ccc(Cl)cc2)CC1` (configuration not stated), the IC50 is 87 nM in assay [1] and 143 nM in assay [2].
